Test results published in patent publication US11234960B2, “Compositions and methods for improving mitochondrial function and treating neurodegenerative diseases and cognitive disorders” (Amazentis SA, priority 2010, dated 2022).

Key:
PC-12 cells = experiment: Neurite outgrowth in NGF-differentiated PC-12 cells; format: cell-based, rat; details: 0.5 μM
Protocol: The ellagitannins and their metabolites tested in the assays were synthesized or purchased from suppliers which included Funakoshi, Sigma, and Chemos. Stock solutions were aliquoted and stored at −20° C.
PC-12 cells (ATCC CRL-1721) were cultured at 37° C., 5% CO2 in poly L-lysine-coated culture flasks in complete culture medium (RPMI 1640+10% heat-inactivated horse serum+5% fetal bovine serum).
Cell differentiation was performed in culture flasks 24 h after plating, in complete medium supplemented with 100 ng/mL NGF (2.5 S NGF, Invitrogen). The NGF-supplemented medium was renewed every third day, and differentiation was induced over an 8-day period.
All compounds to be tested were prepared just before the experiment as a 50 mM stock solution in dimethylsulfoxide (DMSO). The final DMSO concentration was 0.1% in the medium of all experimental groups.
For neurite outgrowth measurements, differentiated cells were washed with phosphate-buffered saline (PBS), collected after detachment and replated at a density of 5,000 cells/well (biocoat imaging 96 well plate) in complete medium supplemented with 100 ng/mL NGF, with or without 10 μM SP600125 (negative control), 1 mM dbcAMP (positive control), or tested compound at 5×10^−7 M. In the undifferentiated control group, no NGF was added after replating.
After 72 h in culture, PC-12 cells were washed with PBS and fixed in 1% paraformaldehyde solution for 20 minutes. After 3 washes with PBS, immunofluorescence labeling was performed with Texas Red Maleimide probe, which reacts with thiol groups of cysteine residues of proteins, permitting the visualization of the entire cell morphology, including neurites.
Immunofluorescence analysis was performed in automated confocal microscopy. Images were acquired with a BD pathway 855 system, under X20 objective with 8×8 field montage. Neurite outgrowth was then measured from acquired images with the neurite module of Metamorph® software. Total and mean outgrowth, total and mean number of processes per cell, and total and percentage of cells with extensive outgrowth (defined as outgrowth longer than 20 μm) were analyzed.

[1] = system: primary dopaminergic tyrosine hydroxylase (TH)-positive neurons; experiment: Neurite outgrowth in primary dopaminergic TH-positive neurons; format: cell-based, rat; details: 72 h; compounds 0.1 μM, SP600125 10 μM, dbcAMP 1 mM (FIG. 14)
Protocol: Primary mesencephalic cultures were prepared from rat E14 embryos. Ventral mesencephalon was carefully dissected and dissociated. Cells were then plated in DMEM F12 medium containing 10% heat inactivated horse serum at the density of 100,000 cells/well (96-well plate), with or without the JNK-specific inhibitor SP600125 (10 μM) (which served as a negative control) or dbcAMP (1 mM) (which served as a positive control), or the compounds tested each at the doses of 0.1 μM.
72 h after plating, the effects on the neurite outgrowth of dopaminergic tyrosine hydroxylase (TH)-positive neurons were measured from images acquired by automated confocal microscopy (X4 objective, montage 4×4) and covering the entire well surface, and quantified using the Neurite outgrowth module of Metamorph® software. Several representative parameters of neurite outgrowth were thus generated: total and mean outgrowth, total and mean number of processes per cell, and total and percentage of cells with extensive outgrowth (defined as outgrowth longer than 20 μm) were analyzed. All experiments were performed in quadruplicate.

SMILES	percent of cells showing significant outgrowth (>20 μm), increase vs differentiated cells (PC-12 cells; 72 h (FIG. 8)) [%]	number of processes (in words) (PC-12 cells; 72 h, differentiated PC-12 cells)	increase in branching [1] [%]
O=C1OC[C@H]2OC(O)[C@H](O)[C@@H](O)[C@@H]2OC(=O)c2cc(O)c(O)c(O)c2-c2c(O)c(O)c3oc(=O)c4c(c(O)c(O)c5oc(=O)c2c3c54)-c2c1cc(O)c(O)c2O (mixture of isomers) [punicalin]	26	induced an increase in the number of processes	
CCCC(=O)Nc1ncnc2c1ncn2[C@@H]1O[C@@H]2COP(=O)(O)O[C@H]2[C@H]1OC(=O)CCC [dbcAMP, dibutyryl cyclic AMP]			86
Oc1c2ccccc2c2c3c(cccc13)N=N2 [SP600125]			60
